{"source": "patent US20070274923A1", "about": "“Non-invasive real-time in vivo bioluminescence imaging of local Ca2+ dynamics in living organisms” (priority 2005, published 2007)", "key": {"[1]": {"test_system": "Ca^2+ oscillations in somatosensory cortex slices", "experiment": "Mitochondrial Ca2+ oscillations in organotypic somatosensory cortex slices of mtGA transgenic mice (bioluminescence imaging)", "type": "cell-based, mouse", "conditions": "50 μM; oscillations generated by removal of Mg2+ from buffer; slices of P4 mtGA mice"}, "cortical neurons": {"test_system": "cortical neurons", "experiment": "Single-cell bioluminescence imaging of transfected cortical neurons", "type": "cell-based", "conditions": "cortical neurons with non-targeted GA reconstituted with h coelenterazine", "method": "Cultures were plated on to glass-bottomed dishes and mounted to a stage adapter on a fully automated inverted microscope mounted in a black-box. GFP-Aequorin was reconstituted with 2.5-5 μM coelenterazine for 30 minutes at 37° C. Incubation of cells with coelenterazine that had been transfected with SynGA was undertaken at room temperature to reduce the consumption of the photoprotein during the reconstitution process. Cells were perfused with tyrodes buffer. Prior to bath application of NMDA, cells were perfused for 1 minute without Mg^2+. All recordings were made at room temperature (22-25° C.). […]\nThe fluorescence/bioluminescence wide field microscopy system was custom built by ScienceWares, Inc. The system includes a fully automated inverted microscope (200M, Zeiss Germany) and is housed in a light-tight dark box. […] Low level light emission (photon rate<100 kHz), was collected using an Image Photon Detector (IPD 3, Photek Ltd.) connected to the baseport of the microscope, which assigns an X, Y coordinate and time point for each detected photon (Miller et al., 1994). The system is fully controlled by the data acquisition software, which also converts single photon events into an image that can be superimposed with brightfield or fluorescence images made by a connected CCD camera to the C-port (Coolsnap HQ, Roper Scientific). […]"}}, "data": [{"compound": "N[C@H](CCCP(=O)(O)O)C(=O)O", "note": "[D-APV]", "values": [{"measurement": "effect on Ca2+ oscillations detected within the mitochondrial matrix", "setting": "[1]", "value": "completely and reversibly blocked"}]}, {"compound": "[Cl-].[K+]", "note": "[KCl]", "values": [{"measurement": "Ca2+-induced bioluminescence signal", "setting": "cortical neurons; 90 mM", "value": "robust signal"}]}, {"compound": "CN[C@H](CC(=O)O)C(=O)O", "note": "[NMDA]", "values": [{"measurement": "Ca2+-induced bioluminescence signal", "setting": "cortical neurons; 100 μM", "value": "robust signal"}]}]}
